The text below walks through data of patent publication US20250205244A1, “METHODS OF TREATING MIGRAINE WITH MNK INHIBITORS” (4E Therapeutics, Inc., priority 2021, published 2025).

For assay [1], the system named is WT mice, dural IL-6. Put plainly: Dural IL-6-induced acute facial hypersensitivity and grimace in mice. It is filed as in vivo, mouse. As to conditions: female and male WT mice; 10 mg/kg oral gavage prior to dural IL-6 (0.1 ng); compared to the vehicle group. The source says: Female and male MNK1 KO mice were a gift of the Sonenberg laboratory at McGill University and bred at the University of Texas at Dallas (UTD) to generate experimental animals (Ueda T, et al., MNK2 and MNK1 are essential for constitutive and inducible phosphorylation of eukaryotic initiation factor 4E but not for cell growth or development. Mol Cell Biol. August 2004). Genotype was confirmed at weaning using DNA from ear clips. Experimental C57BL6/J wild-type (WT) animals were obtained from an internally maintained C57BL/6 J colony at the University of Texas at Dallas. For pharmacological studies, female and male ICR (CD-1) mice aged 6-8 weeks (˜25-30 g) were outbred and purchased from Envigo. All mice were housed in groups of four animals per cage on a 12-hour light-dark cycle and had access to food and water ad libitum. Upon arrival to the animal care facility, animals were allowed a minimum of 72 hours to acclimate to their new environment before being handled for experiments. All experiments were performed between the hours of 9:00 AM and 5:00 PM. All procedures were conducted with prior approval of the Institutional Animal Care and Use Committee at the University of Texas at Dallas.
For dural injections, human recombinant interleukin-6 (IL-6) protein (R&D Systems) stock solution ([…]) was prepared in sterile 0.1% BSA and diluted to 1 ng/ml in synthetic interstitial fluid (SIF) consisting of 135 mM NaCl, 5 mM KCl, 10 mM HEPES, 2 mM CaCl2), 10 mM glucose, 1 mM MgCl2 (pH 7.4, 310 mOsm). Sodium nitroprusside (SNP) (Sigma-Aldrich) was prepared fresh in sterile phosphate buffered saline (PBS) at the time of use and was kept away from light. To test for the presence of hyperalgesic priming, mice were given a 150 μL IP injection of 0.1 mg/kg of SNP or a 5 μL dural injection of SIF solution that was brought to a pH of 7.0, as previously described (Avona A., et al., Repetitive stress in mice causes migraine-like behaviors and CGRP-dependent hyperalgesic priming to a migraine trigger. Pain. (2020); Burgos-Vega C. C. et al., Non-invasive dural stimulation in mice: A novel preclinical model of migraine. Cephalalgia. (2019)). […] MNK inhibitors were given orally to WT mice at 10 mg/kg approximately 1 hr prior to dural IL-6 or dural pH 7.0.
Mouse dural injections were performed as previously described (Burgos-Vega C. C. et al., Non-invasive dural stimulation in mice: A novel preclinical model of migraine. Cephalalgia. (2019)). Mice were anesthetized under isoflurane for <2 min with <2.5-3% isoflurane via a chamber and given a 5 μL injection via a modified internal cannula (Invivo1, part #8IC313ISPCXC, Internal Cannula, standard, 28 gauge, fit to 0.5 mm). […]

In assay [2] the target is recombinant human kinase, MNK1 (Homo sapiens, UniProt Q9BUB5). Put plainly: MNK1 substrate phosphorylation assay. It is filed as biochemical.
For assay [3], the target named is recombinant human kinase, MNK2 (Homo sapiens, UniProt Q9HBH9). Put plainly: MNK2 substrate phosphorylation assay. In kind it is biochemical.
Assay [4] has as its system eIF4E phosphorylation at Serine 209 in the human embryonic kidney (HEK) 293 cell line. Kind of assay: Inhibition of eIF4E phosphorylation in HEK293 cells (phospho-specific antibody, fluorescent plate reader). In kind it is cell-based. The settings on record: HEK293, 2 h, eIF4E phosphorylation at Serine 209, HEK293 cells, 2 hours exposure. How it is done:
The ability of MNK inhibitors described herein to inhibit eIF4E phosphorylation at Serine 209 in the human embryonic kidney (HEK) 293 cell line was tested by exposing the cells to compound for 2 hours and then measuring eIF4E phosphorylation with a phosphorylation-specific antibody in a fluorescent plate reader. These experiments were done with HEK-293 cells plated on 96 well plates. Following treatment, cells were fixed with ice cold methanol for 10 min and then washed in 1× phosphate buffered saline (PBS) and the permeabilized with 0.02% Triton X-100 in 10% normal goat serum made up in PBS. Primary antibody was applied overnight at a concentration dilution of 1:2000 (p-eIF4E antibody from Cell Signaling ab76256). Following washing, cells were then exposed to secondary antibody conjugated to alexa-fluor 488 and then visualized on a Syngergy HTX plate reader. Fluorescence for p-eIF4E was measured and normalized to total DAPI fluorescence to determine the percentage of eIF4E phosphorylation in each well. Data were plotted in Graphpad Prism V8 to determine concentration-response effects and calculate IC50 values.

Assay [5] has as its system WT mice, dural pH 7.0 after dural IL-6. Kind of assay: Hyperalgesic priming to dural pH 7.0 after dural IL-6 in mice. As to conditions: female and male WT mice. It is filed as in vivo, mouse. The source says:
Female and male MNK1 KO mice were a gift of the Sonenberg laboratory at McGill University and bred at the University of Texas at Dallas (UTD) to generate experimental animals (Ueda T, et al., MNK2 and MNK1 are essential for constitutive and inducible phosphorylation of eukaryotic initiation factor 4E but not for cell growth or development. Mol Cell Biol. August 2004). Genotype was confirmed at weaning using DNA from ear clips. Experimental C57BL6/J wild-type (WT) animals were obtained from an internally maintained C57BL/6 J colony at the University of Texas at Dallas. For pharmacological studies, female and male ICR (CD-1) mice aged 6-8 weeks (˜25-30 g) were outbred and purchased from Envigo. All mice were housed in groups of four animals per cage on a 12-hour light-dark cycle and had access to food and water ad libitum. Upon arrival to the animal care facility, animals were allowed a minimum of 72 hours to acclimate to their new environment before being handled for experiments. All experiments were performed between the hours of 9:00 AM and 5:00 PM. All procedures were conducted with prior approval of the Institutional Animal Care and Use Committee at the University of Texas at Dallas. […]

Chain of recombinant human kinase, MNK2 (Q9HBH9 whole entry): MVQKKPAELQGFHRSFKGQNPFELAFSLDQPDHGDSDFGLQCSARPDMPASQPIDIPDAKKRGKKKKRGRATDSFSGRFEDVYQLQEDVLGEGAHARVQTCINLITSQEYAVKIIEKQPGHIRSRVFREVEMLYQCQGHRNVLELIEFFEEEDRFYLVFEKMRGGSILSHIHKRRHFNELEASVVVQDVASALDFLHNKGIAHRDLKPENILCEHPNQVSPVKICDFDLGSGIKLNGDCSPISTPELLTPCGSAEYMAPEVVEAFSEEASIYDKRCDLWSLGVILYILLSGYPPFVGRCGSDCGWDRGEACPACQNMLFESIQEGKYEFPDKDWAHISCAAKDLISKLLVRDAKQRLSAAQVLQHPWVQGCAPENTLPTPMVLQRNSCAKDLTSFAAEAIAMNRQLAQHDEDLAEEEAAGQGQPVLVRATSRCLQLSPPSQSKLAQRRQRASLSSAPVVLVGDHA
Chain of recombinant human kinase, MNK1 (Q9BUB5 whole entry): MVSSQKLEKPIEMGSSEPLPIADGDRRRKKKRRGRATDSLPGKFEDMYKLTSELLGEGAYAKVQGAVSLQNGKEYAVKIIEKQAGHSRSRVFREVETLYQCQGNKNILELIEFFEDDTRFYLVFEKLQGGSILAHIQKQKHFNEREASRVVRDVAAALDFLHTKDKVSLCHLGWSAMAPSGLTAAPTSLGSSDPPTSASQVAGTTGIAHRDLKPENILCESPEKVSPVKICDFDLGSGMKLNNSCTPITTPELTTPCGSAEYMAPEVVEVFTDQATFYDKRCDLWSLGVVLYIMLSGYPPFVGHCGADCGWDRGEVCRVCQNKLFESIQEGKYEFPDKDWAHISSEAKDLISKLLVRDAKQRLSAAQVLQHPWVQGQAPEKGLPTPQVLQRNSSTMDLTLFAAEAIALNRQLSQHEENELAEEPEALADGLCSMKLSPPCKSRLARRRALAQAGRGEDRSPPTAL

With `Cc1cc(Nc2cc(N)ncn2)c(=O)n2c1C(=O)NC21CCCC2(CC2)CC1` (racemic) [rac-4ET-01-027, 6″-((6-aminopyrimidin-4-yl)amino)-8″-methyl-2″H-dispiro[cyclopropane-1,1′-CYCLOHEPTANE-4′,3″-imidazo[1,5-a]pyridine]-1″,5″-dione], the “dural IL-6 induced facial grimace measures (grimace score)” value in assay [1] is reported as “significantly attenuated”.

In general, IC50 refers to the concentration needed to halve the response being measured. Consider `Cc1cc(Nc2cc(N)ncn2)c(=O)n2c1C(=O)NC21CCC2(CCC2)C1` (stereo not drawn) [4ET-01-015], for which the IC50 worked out at 30.9 nM in assay [2], 2.6 nM in assay [3] and 3.9 nM in assay [4].

Turning to `Nc1cc(Nc2cc(Cl)c3n(c2=O)C2(CCC4(CC4)CC2)NC3=O)ncn1` [4ET-04-023], the half-maximal inhibitory concentration (IC50) in assay [2] amounted to 36.8 nM; in assay [3] it was 1.86 nM; in assay [4], 1.2 nM. The “dural IL-6 induced facial grimace measures (grimace score)” value in assay [1] is given as “significantly attenuated”.

For the molecule `Cc1cc(Nc2cc(N)ncn2)c(=O)n2c1C(=O)NC21CCCCC1` [eFT508, reference compound], in assay [1], the “dural IL-6 induced facial grimace measures (grimace score)” value is recorded as “significantly attenuated” and the “dural IL-6 induced facial hypersensitivity (periorbital von Frey)” value is “significantly attenuated”. Moreover, in assay [5] (10 mg/kg oral gavage prior to dural IL-6, later tested with dural SIF pH 7.0), the “hyperalgesic priming to dural pH 7.0” value is “did not prime to dural pH 7.0”. Moreover, in assay [5] (10 mg/kg oral gavage prior to dural pH 7.0, compared to the vehicle group), the “hyperalgesic priming to dural pH 7.0” value was “did not prime to pH 7.0”.
